Source: patent US20050181450A1, “Novel inositol 1,4,5-trisphosphate (IP3) receptor-binding protein and an IP3 indicator” (priority 2002, published 2005)
pEC50, pKd: −log10 of the molar value.

Experiments:
[1] = target: T1, IRBIT bound to GST-EL (mouse IP3R1 amino acids 1-2217) (Mus musculus, UniProt P11881, N1264K); assay: Dissociation of IRBIT from GST-EL by eluants (pulldown, immunoblot quantification); assay type: binding
T1 construct: construct a GST-IP3R1 (1-2217) vector (termed GST-EL); made in house; host or cells: Sf9 cells (baculovirus) for GST-EL; IRBIT from mouse cerebellum tissue extract
T1 sequence (P11881 1-2217 N1264K): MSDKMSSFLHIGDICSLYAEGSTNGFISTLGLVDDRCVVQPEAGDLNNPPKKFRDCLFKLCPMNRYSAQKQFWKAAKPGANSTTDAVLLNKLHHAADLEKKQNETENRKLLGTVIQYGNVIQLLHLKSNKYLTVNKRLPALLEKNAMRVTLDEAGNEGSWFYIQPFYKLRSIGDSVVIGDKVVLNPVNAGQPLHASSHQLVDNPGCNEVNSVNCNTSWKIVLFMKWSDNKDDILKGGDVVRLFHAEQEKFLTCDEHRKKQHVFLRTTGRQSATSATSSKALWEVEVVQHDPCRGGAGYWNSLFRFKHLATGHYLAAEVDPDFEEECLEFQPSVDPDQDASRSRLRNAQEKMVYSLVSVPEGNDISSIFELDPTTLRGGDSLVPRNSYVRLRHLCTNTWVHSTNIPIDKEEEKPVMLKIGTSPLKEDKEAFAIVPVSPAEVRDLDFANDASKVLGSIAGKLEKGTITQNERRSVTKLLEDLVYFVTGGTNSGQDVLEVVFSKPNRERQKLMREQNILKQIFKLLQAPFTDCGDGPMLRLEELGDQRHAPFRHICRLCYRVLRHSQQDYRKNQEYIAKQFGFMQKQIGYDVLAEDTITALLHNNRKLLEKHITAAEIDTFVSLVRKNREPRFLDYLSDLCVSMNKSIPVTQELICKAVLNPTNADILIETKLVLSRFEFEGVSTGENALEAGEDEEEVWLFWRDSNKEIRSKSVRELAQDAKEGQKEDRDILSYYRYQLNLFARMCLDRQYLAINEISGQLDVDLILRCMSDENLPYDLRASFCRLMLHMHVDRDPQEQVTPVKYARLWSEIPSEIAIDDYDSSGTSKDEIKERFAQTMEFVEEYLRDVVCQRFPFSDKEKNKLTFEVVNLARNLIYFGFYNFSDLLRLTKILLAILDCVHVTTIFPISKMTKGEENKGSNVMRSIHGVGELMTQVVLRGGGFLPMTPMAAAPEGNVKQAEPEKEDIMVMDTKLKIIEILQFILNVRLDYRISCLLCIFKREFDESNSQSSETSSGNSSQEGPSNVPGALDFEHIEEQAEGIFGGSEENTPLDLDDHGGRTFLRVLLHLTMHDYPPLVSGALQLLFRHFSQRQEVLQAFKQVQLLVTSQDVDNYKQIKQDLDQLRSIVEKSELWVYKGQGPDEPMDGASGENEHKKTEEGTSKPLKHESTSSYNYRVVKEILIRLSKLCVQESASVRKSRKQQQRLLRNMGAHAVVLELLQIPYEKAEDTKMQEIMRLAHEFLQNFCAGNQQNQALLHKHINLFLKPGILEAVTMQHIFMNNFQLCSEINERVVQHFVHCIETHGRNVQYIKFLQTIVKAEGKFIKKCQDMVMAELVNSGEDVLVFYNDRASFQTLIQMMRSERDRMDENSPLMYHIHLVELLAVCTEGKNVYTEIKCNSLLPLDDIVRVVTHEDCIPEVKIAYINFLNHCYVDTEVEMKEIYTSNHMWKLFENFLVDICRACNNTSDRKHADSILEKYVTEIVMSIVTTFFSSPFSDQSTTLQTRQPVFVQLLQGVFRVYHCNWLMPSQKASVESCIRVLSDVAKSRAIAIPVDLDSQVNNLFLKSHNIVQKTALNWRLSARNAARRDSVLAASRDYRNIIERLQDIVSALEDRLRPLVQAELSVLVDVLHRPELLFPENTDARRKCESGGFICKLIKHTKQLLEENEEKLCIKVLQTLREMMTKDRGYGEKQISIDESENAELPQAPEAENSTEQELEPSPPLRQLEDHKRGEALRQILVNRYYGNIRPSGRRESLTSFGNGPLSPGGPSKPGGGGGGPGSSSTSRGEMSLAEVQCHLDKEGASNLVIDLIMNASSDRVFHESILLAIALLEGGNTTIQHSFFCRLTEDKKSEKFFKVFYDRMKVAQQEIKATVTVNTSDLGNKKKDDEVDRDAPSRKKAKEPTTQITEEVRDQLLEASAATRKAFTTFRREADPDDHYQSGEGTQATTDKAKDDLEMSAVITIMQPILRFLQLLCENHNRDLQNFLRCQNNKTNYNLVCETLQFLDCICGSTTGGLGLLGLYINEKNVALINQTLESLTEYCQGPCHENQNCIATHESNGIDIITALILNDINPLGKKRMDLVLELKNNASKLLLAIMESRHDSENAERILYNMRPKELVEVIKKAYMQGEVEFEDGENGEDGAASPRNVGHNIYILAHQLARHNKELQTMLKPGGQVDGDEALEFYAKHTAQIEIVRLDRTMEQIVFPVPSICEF
Experimental: Bound proteins were pulled down with glutathione-Sepharose, and eluted with glutathione (Glu) (a) or 0.1 to 10 μM IP3 (a), IP2 (b), IP4 (c), IP6 (d), or ATP (e). IRBIT in the extract was analyzed with anti-IRBIT antibody and Alexa 680-conjugated secondary antibody (“a” (lower panel) and panels “b” to “e”). GST-EL in the glutathione and 0.1 to 10 μM IP3 eluate was analyzed with anti-GST antibody (a, upper panel). […] The relative intensity was plotted against the concentration of an eluant. Results are shown as the mean±standard deviation from at least three independent experiments.
For dissociation experiments, IRBIT in the diluted high salt extract was pulled down with GST-EL for precipitation and washed as described above. To resins, 100 μl of a wash buffer containing IP3, inositol 4,5-bisphosphate (IP2) (Dojindo), inositol 1,3,4,5-tetrakisphosphate (IP4) (Calbiochem), inositol 1,2,3,4,5,6-hexakisphosphate (IP6) (Calbiochem) or ATP (Amersham Pharmacia Biotech) (0.1, 0.3, 1, 3 or 10 μM) were added. After incubation on ice for 10 minutes, samples were centrifuged at 10,000 rpm for 1 minute, and the supernatant was subjected to immunoblot analysis with anti-IRBIT antibody or goat anti-GST antibody (Amersham Pharmacia Biotech). For quantification, Alexa 680-conjugated goat anti-rabbit IgG (Molecular Probes) was used as a secondary antibody. The fluorescence intensity of the immunoreactive bands of IRBIT was measured using the Odyssey infrared imaging system (Aloka). Quantitative data (the mean±SD from at least three independent experiments) is expressed as a percentage of the amount of IRBIT in 10 μM IP3 eluate.
IRBIT in the high salt extract from the mouse cerebellar crude microsome was trapped with GST-EL. Then elution was attempted with 0.1 to 10 μM IP3, and other inositolpolyphosphates, IP2, IP4, IP6 or ATP. […] It was confirmed that GST-EL was not detected (FIG. 8Aa, upper panel), even with longer exposure. […]

[2] = target: N-terminal region of IP3R1 (amino acids 1-604) (Mus musculus, UniProt P11881); settings: cited from earlier work
Chain of N-terminal region of IP3R1 (amino acids 1-604) (P11881 1-604): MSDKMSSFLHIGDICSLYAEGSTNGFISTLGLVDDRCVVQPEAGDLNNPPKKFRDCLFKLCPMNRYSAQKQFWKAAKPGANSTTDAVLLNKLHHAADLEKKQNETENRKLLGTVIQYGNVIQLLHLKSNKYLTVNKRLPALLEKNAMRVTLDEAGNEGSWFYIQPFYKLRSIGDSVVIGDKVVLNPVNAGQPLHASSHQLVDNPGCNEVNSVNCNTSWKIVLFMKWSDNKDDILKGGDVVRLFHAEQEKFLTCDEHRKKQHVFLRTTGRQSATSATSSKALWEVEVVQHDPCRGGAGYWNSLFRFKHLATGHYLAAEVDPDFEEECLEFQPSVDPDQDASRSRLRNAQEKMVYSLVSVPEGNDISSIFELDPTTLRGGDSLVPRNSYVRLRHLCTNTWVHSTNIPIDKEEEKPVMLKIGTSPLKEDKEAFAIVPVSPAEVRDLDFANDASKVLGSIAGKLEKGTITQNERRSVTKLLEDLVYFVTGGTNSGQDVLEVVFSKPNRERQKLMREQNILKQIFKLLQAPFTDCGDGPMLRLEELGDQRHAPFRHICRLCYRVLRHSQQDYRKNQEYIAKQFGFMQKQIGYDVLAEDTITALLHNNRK

[3] = target: T2, GST-EL (mouse IP3R1 amino acids 1-2217) (Mus musculus, UniProt P11881, N1264K); assay: GST pulldown with GST-EL; assay type: binding; settings: GFP fusion proteins in Cos-7 cell lysates
T2 construct: construct a GST-IP3R1 (1-2217) vector (termed GST-EL); made in house; host or cells: Sf9 cells (baculovirus)
T2 sequence (P11881 1-2217 N1264K): as the sequence (P11881 1-2217 N1264K) above
Experimental: Mouse cerebellar cytosolic fraction was diluted 2-fold with 10 mM Hepes (pH 7.4), 200 mM NaCl, 2 mM EDTA, 1 mM 2-ME and 0.02% Triton X-100. The high salt extract was diluted 5-fold with 10 mM Hepes (pH 7.4), 2 mM EDTA, 1 mM 2-ME and 0.01% Triton X-100. The diluted fractions (the final NaCl concentration of both fractions was 100 mM) were incubated with 20 μg of GST-EL or GST for 2 hours at 4° C. After adding 10 μl of glutathione-Sepharose and another 2 hours of incubation, the resins were washed 5 times with a wash buffer (10 mM Hepes (pH 7.4), 100 mM NaCl, 2 mM EDTA, 1 mM 2-ME, and 0.01% Triton X-100), and bound proteins were eluted with 20 mM glutathione.
The eluted proteins were analyzed by Western blotting with anti-IRBIT antibody. For dephosphorylation, the diluted high salt extract was incubated in the presence of or the absence of Escherichia coli alkaline phosphatase (Toyobo) with 2 mM MgCl2 for 30 minutes at 37° C. 5 mM EDTA was added, and then the resultant was subjected to pulldown assay as described above.
For the determination of the IP3R1-interacting region of IRBIT, Cos-7 cells expressing GFP-tagged full-length IRBIT or its truncated mutants were lysed in a lysis buffer (10 mM Hepes (pH7.4), 100 mM NaCl, 2 mM EDTA, 1 mM 2-ME, 0.5% Nonidet P-40, and protease inhibitor) for 30 minutes at 4° C., followed by centrifugation (100,000×g, 30 minutes). The supernatants were subjected to pulldown assay with GST-EL or GST as described above, and bound proteins were subjected to immunoblot analysis with anti-GFP antibody (Medical & Biological Laboratories).

Question: Which “dissociation of IRBIT from GST-EL” value ([1]; 10 μM eluant) does the source give for `Nc1ncnc2c1ncn2[C@@H]1O[C@H](COP(=O)(O)OP(=O)(O)OP(=O)(O)O)[C@@H](O)[C@H]1O` [ATP] here?
Answer: did not dissociate

Question: Which “affinity lower than the Kd value determined by a conventional assay” value ([2]; pH 7.4 and 150 mM NaCl versus conventional assay) does the source give for `O=P(O)(O)O[C@@H]1[C@H](O)[C@H](O)[C@@H](OP(=O)(O)O)[C@H](OP(=O)(O)O)[C@H]1O` [IP3, inositol 1,4,5-trisphosphate] here?
Answer: approximately 7.5 fold

Question: What about the pKd ([2]; physiological conditions (pH 7.4 and 150 mM NaCl), read-out: Kd of IP3 binding) of the same molecule?
Answer: 6.47

Question: And the pEC50 ([1]; pH 7.4 and 100 mM NaCl, IRBIT from mouse cerebellar high salt extract, read-out: EC50 (IP3 concentration required for half (50%)-maximal dissociation of IRBIT from GST-EL))?
Answer: ~6.30

Question: And the “dissociation efficiency relative to other inositol polyphosphates” value ([1]; versus IP2, IP4, IP6)?
Answer: approximately 50 times

Question: With “GFP-IRBIT (1 to 277): GFP-tagged deletion mutant of IRBIT, amino acids 1-277” as the molecule, how does the “interaction with GST-EL” value [3] read?
Answer: bound to GST-EL efficiently

Question: With “GFP-IRBIT (1-104): GFP-tagged deletion mutant of IRBIT, amino acids 1-104 (N-terminal region)” as the molecule, how does the “interaction with GST-EL” value [3] read?
Answer: much weaker

Question: Which “interaction with GST-EL” value [3] does the source give for “GFP-IRBIT (105-530): GFP-tagged deletion mutant of IRBIT, amino acids 105-530, lacking the N-terminal region” here?
Answer: did not interact with GST-EL

Question: Which “interaction with GST-EL” value [3] does the source give for “GFP-IRBIT: GFP-tagged full-length IRBIT expressed in Cos-7 cells” here?
Answer: bound to GST-EL efficiently
